Measured values reported in patent US9527885B2, “Hepatitis C virus inhibitors” (BRISTOL-MYERS SQUIBB COMPANY, priority 2011, dated 2016).
Read-outs that look alike come from different tables or passages of the source.

Columns and labels:
[1] = test system: HCV genotype 1a (H77 strain) replicon in HUH-7 cells; experiment: HCV replicon luciferase reporter assay, genotype 1a; format: cell-based; conditions: Hepatitis C virus, Huh-7, 72 h, 3 days incubation, read-out: LE_1a (EC50, range)
Description: (§1) An HCV replicon whole cell system was established as described by Lohmann V, Korner F, Koch J, Herian U, Theilmann L, Bartenschlager R., Science 285(5424):110-3 (1999) and modified to introduce a luciferase reporter, as first described by Krieger et al (Krieger N, Lohmann V, and Bartenschlager R, J. Virol. 75(10):4614-4624 (2001)). CDNA encoding a humanized form of the Renilla luciferase gene and a linker sequence fused directly to the 3′-end of the luciferase gene were introduced into the replicon construct using an Asc1 restriction site located in core, directly upstream of the neomycin marker gene. The adaptive mutation at position 1179 (serine to isoleucine) was also introduced (Blight K J, Kolykhalov, A A, Rice, C M, Science 290(5498):1972-1974). A stable cell line constitutively expressing this HCV replicon construct was generated by first linearizing plasmid DNAs with ScaI. RNA transcripts were synthesized in vitro using the T7 MegaScript transcription kit (Ambion, Austin, Tex.) according to manufacturer's directions. In vitro transcripts of the cDNA were transfected into the human hepatoma cell line, HUH-7. […] Resulting cell lines were characterized for positive and negative strand RNA production and protein production over time.
A stable HCV replicon luciferase reporter cell line representing the genotype 1a H77 strain (Yanagi M, Purcell R H, Emerson S U, et al. Transcripts from a single full-length cDNA clone of hepatitis C virus are infectious when directly transfected into the liver of a chimpanzee. Proc Natl Acad Sci USA 1997; 94(16):8738-8743) was generated as described previously for the genotype 1b (Con1) replicon luciferase cell line. The replicon construct was modified by introducing mutations were introduced into the genes encoding the NS3 helicase domain (proline replaced by leucine at position 1496) and NS5A (serine to isoleucine at position 2204) to improve replication in cell culture.
(§2) HCV replicon luciferase assays were developed to monitor the inhibitory effects of compounds described in the disclosure on HCV genotypes 1a and 1b viral replication. HUH-7 cells, constitutively expressing the HCV replicon, were grown in Dulbecco's Modified Eagle Media (DMEM) (Gibco-BRL) containing 10% Fetal calf serum (FCS) (Sigma) and 1 mg/mL G418 (Gibco-BRL). Compounds were serially diluted 3 folds in DMSO for a twenty-point titration and subsequently transferred to sterile 384-well tissue-culture treated plates (Corning cat #3571). The plates were then seeded with 50 μL of cells at a density of 3.0×10^3 cells/well in DMEM containing 4% FCS (final DMSO concentration at 0.5%). After 3 days incubation at 37° C., cells were analyzed for Renilla Luciferase activity using the EnduRen as substrate (Promega cat #E6485). The EnduRen substrate was diluted in DMEM and then added to the plates to a final concentration of 7.5 μM. The plates were incubated for 2 hrs at 37° C. and then read immediately for 30 seconds with Viewlux Imager (PerkinElmer) using a luminescence program. To assess cytotoxicity of compounds, CC50 values were generated by multiplexing the EnduRen-containing plates with Cell Titer-Blue (Promega, cat # G8082). Cell-Titer Blue (3 μL) was added to each well and incubated for 8 hrs at 37° C. The fluorescence signal from each well was read, with an excitation wavelength at 525/10 nm and an emission wavelength of 598/10 nm, using the Viewlux Imager.
(§3) The EC50 values for compounds were calculated by using a four-parameter logistic equation: y=A+((B−A)/(1+((C/x)^D))), where A and B denotes minimal and maximal % inhibition, respectively, C is the EC50, D is the hill slope and x represents compound concentration.

[2] = test system: HCV genotype 1b (Con1) replicon in HUH-7 cells; experiment: HCV replicon luciferase reporter assay, genotype 1b; format: cell-based; conditions: Hepatitis C virus, 72 h, 3 days incubation, read-out: LE_1b (EC50, range)
Description: as §1, with “time. […]” for “time.”
as §2, §3

[3] = HCV genotype 1a replicon luciferase, class symbols
[4] = HCV genotype 1b replicon luciferase, class symbols
[5] = HCV genotype 1a replicon luciferase reporter, range class
[6] = HCV genotype 1b replicon luciferase reporter, range class
[7] = HCV genotype 1a replicon luciferase, range class
[8] = HCV genotype 1b replicon luciferase, range class

Row | SMILES | EC50 [1, 3] [nM] | EC50 [2, 4] [nM] | EC50 [1, 5] [nM] | EC50 [2, 6] [nM] | also measured
1 | C[C@@H]1CC/C=C\[C@@H]2C[C@@]2(C(=O)NS(=O)(=O)C2CC2)NC(=O)[C@@H]2C[C@@H](Oc3nccc4ccc(F)cc34)CN2C(=O)[C@@H](NC(=O)OC(C)(C)C(F)(F)F)[C@H](C)C1 [Compound 4072, 1,1,1-trifluoro-2-methylpropan-2-yl (2R,6S,7R,9R,13aS,14aR,16aS,Z)-14a-(cyclopropylsulfonylcarbamoyl)-2-(7-fluoroisoquinolin-1-yloxy)-7,9-dimethyl-5,16-dioxo-1,2,3,5,6,7,8,9,10,11,13a,14,14a,15,16,16a-hexadecahydrocyclopropa[e]pyrrolo[1,2-a][1,4]diazacyclopentadecin-6-ylcarbamate] | < 5.46 | < 5.46 |  |  | 
2 | COc1ccc2c(O[C@@H]3C[C@H]4C(=O)N[C@]5(C(=O)NS(=O)(=O)C6(C)CC6)C[C@H]5/C=C\CC[C@@H](C)C[C@@H](C)[C@H](NC(=O)OC(C)(C)C(F)(F)F)C(=O)N4C3)nc(N(C)C)cc2c1 [Compound 3117, 1,1,1-trifluoro-2-methylpropan-2-yl ((2R,6S,7R,9R,13aS,14aR,16aS,Z)-2-((3-(dimethylamino)-6-methoxyisoquinolin-1-yl)oxy)-7,9-dimethyl-14a-(((1-methylcyclopropyl)sulfonyl)carbamoyl)-5,16-dioxo-1,2,3,5,6,7,8,9,10,11,13a,14,14a,15,16,16a-hexadecahydrocyclopropa[e]pyrrolo[1,2-a][1,4]diazacyclopentadecin-6-yl)carbamate] |  |  | < 5.46 | < 5.46 | 
3 | COc1ccc2c(O[C@@H]3C[C@H]4C(=O)N[C@]5(C(=O)NS(=O)(=O)C6CC6)C[C@H]5/C=C\CC[C@@H](C)C[C@@H](C)[C@H](NC(=O)O[C@@H]5C[C@@H]6C[C@@H]6C5)C(=O)N4C3)nc(-c3ccc(OC(C)C)cn3)cc2c1 [Compound 5209, (1R,3r,5S)-bicyclo[3.1.0]hexan-3-yl ((2R,6S,7R,9R,13aS,14aR,16aS,Z)-14a-((cyclopropylsulfonyl)carbamoyl)-2-((3-(5-isopropoxypyridin-2-yl)-6-methoxyisoquinolin-1-yl)oxy)-7,9-dimethyl-5,16-dioxo-1,2,3,5,6,7,8,9,10,11,13a,14,14a,15,16,16a-hexadecahydrocyclopropa[e]pyrrolo[1,2-a][1,4]diazacyclopentadecin-6-yl)carbamate] |  |  |  |  | EC50 [1, 7]: < 5.46 nM; EC50 [2, 8]: < 5.46 nM
4 | C[C@@H]1CCC[C@H](O)[C@@H]2C[C@@]2(C(=O)NS(=O)(=O)C2(C)CC2)NC(=O)[C@@H]2C[C@@H](Oc3ncc(OC4CC4)c4ccccc34)CN2C(=O)[C@@H](NC(=O)OC(C)(C)C(F)(F)F)[C@H](C)C1 [Compound 2002, 1,1,1-trifluoro-2-methylpropan-2-yl ((2R,6S,7R,9R,13S,13aR,14aR,16aS)-2-((4-cyclopropoxyisoquinolin-1-yl)oxy)-13-hydroxy-7,9-dimethyl-14a-(((1-methylcyclopropyl)sulfonyl)carbamoyl)-5,16-dioxooctadecahydrocyclopropa[e]pyrrolo[1,2-a][1,4]diazacyclopentadecin-6-yl)carbamate] |  |  | 4.82 to 103 | 4.82 to 103 | 
5 | COc1ccc2c(O[C@@H]3C[C@H]4C(=O)N[C@]5(C(=O)NS(=O)(=O)C6(C)CC6)C[C@H]5/C=C\CC[C@H](C)C[C@@H](C)[C@H](NC(=O)OC(C)(C)C(F)(F)F)C(=O)N4C3)nc(N(C)C)cc2c1 [Compound 3116, 1,1,1-trifluoro-2-methylpropan-2-yl ((2R,6S,7R,9S,13aS,14aR,16aS,Z)-2-((3-(dimethylamino)-6-methoxyisoquinolin-1-yl)oxy)-7,9-dimethyl-14a-(((1-methylcyclopropyl)sulfonyl)carbamoyl)-5,16-dioxo-1,2,3,5,6,7,8,9,10,11,13a,14,14a,15,16,16a-hexadecahydrocyclopropa[e]pyrrolo[1,2-a][1,4]diazacyclopentadecin-6-yl)carbamate] |  |  | 4.82 to 103 | < 5.46 | 
6 | C[C@@H]1CC/C=C\[C@@H]2C[C@@]2(C(=O)NS(=O)(=O)C2(C)CC2)NC(=O)[C@@H]2C[C@@H](Oc3nccc4c(N5CCOCC5)cccc34)CN2C(=O)[C@@H](NC(=O)OC(C)(C)C(C)(F)F)[C@H](C)C1 [Compound 5126, 3,3-difluoro-2-methylbutan-2-yl ((2R,6S,7R,9R,13aS,14aR,16aS,Z)-7,9-dimethyl-14a-(((1-methylcyclopropyl)sulfonyl)carbamoyl)-2-((5-morpholinoisoquinolin-1-yl)oxy)-5,16-dioxo-1,2,3,5,6,7,8,9,10,11,13a,14,14a,15,16,16a-hexadecahydrocyclopropa[e]pyrrolo[1,2-a][1,4]diazacyclopentadecin-6-yl)carbamate] | < 5.46 | < 5.46 |  |  | 
7 | COc1ccc2c(O[C@@H]3C[C@H]4C(=O)N[C@]5(C(=O)NS(=O)(=O)C6(C)CC6)C[C@H]5/C=C\CC[C@@H](C)C[C@@H](C)[C@H](NC(=O)O[C@@H]5C[C@@H]6C[C@@H]6C5)C(=O)N4C3)nc(-c3ccc(OC(C)C)nc3)cc2c1 [Compound 5229, (1R,3r,5S)-bicyclo[3.1.0]hexan-3-yl ((2R,6S,7R,9R,13aS,14aR,16aS,Z)-2-((3-(6-isopropoxypyridin-3-yl)-6-methoxyisoquinolin-1-yl)oxy)-7,9-dimethyl-14a-(((1-methylcyclopropyl)sulfonyl)carbamoyl)-5,16-dioxo-1,2,3,5,6,7,8,9,10,11,13a,14,14a,15,16,16a-hexadecahydrocyclopropa[e]pyrrolo[1,2-a][1,4]diazacyclopentadecin-6-yl)carbamate] |  |  |  |  | EC50 [1, 7]: < 5.46 nM; EC50 [2, 8]: < 5.46 nM
8 | CC[C@@H]1C[C@H](C)CC/C=C\[C@@H]2C[C@@]2(C(=O)NS(=O)(=O)C2CC2)NC(=O)[C@@H]2C[C@@H](Oc3cnc4ccc(OC)cc4n3)CN2C(=O)[C@H]1NC(=O)OC(C)(C)C(F)(F)F [Compound 4194, 1,1,1-trifluoro-2-methylpropan-2-yl (2R,6S,7R,9R,13aS,14aR,16aS,Z)-14a-(cyclopropylsulfonylcarbamoyl)-7-ethyl-2-(7-methoxyquinoxalin-2-yloxy)-9-methyl-5,16-dioxo-1,2,3,5,6,7,8,9,10,11,13a,14,14a,15,16,16a-hexadecahydrocyclopropa[e]pyrrolo[1,2-a][1,4]diazacyclopentadecin-6-ylcarbamate] | < 5.46 | < 5.46 |  |  | 
